The assay concerns HepG2 BODIPY-LDL uptake, imaging, fold induction. The assay can be described thus: fold increase of hepatoma cell fluorescent LDL uptake – imaging, BODIPY-LDL, cherry-pick, set 2, dose response (AID 1053147). The settings on record: hits give high values.

Molecules are shown by their SMILES.

For `CN1C(=O)c2cc(NC(=O)c3ccc(C(F)(F)F)cc3)ccc2OC[C@@H]2O[C@@H](CC(=O)NC3Cc4ccccc4C3)CC[C@@H]21`, the fold induction x10 is 25.

Take `CN1C(=O)c2cc(NC(=O)c3ccc(C(F)(F)F)cc3)ccc2OC[C@@H]2O[C@H](CC(=O)NC3Cc4ccccc4C3)CC[C@@H]21`: the fold induction x10 is 10.

For the origin of these results see PubChem BioAssay AID1053147 (Broad Institute, 2014).
